# From patent US12708627B2, “Combination therapy for VAV3 cancer” (Children's Hospital Medical Center, priority 2021, dated 2026)
# Where two headings read alike, the source gives them in different places.
# What was measured:
# [1] = test system: p190-BCR-ABL1 leukemic propagating activity; test: Serial transplantation of bone marrow from treated leukemic mice into secondary recipients; details: 5 weeks post transplantation, 10^6-cell dilution
# [2] = test system: empty vector-transduced CD34+ human peripheral blood cells; test: Proliferation and survival of CD34+ cells transduced with empty vector; assay type: cell-based; details: IODVA1 1 or 3 μM
# [3] = biological target: T1, VAV3 (Homo sapiens, UniProt Q9UKW4); test: pVAV3 immunohistochemistry of MDA-MB-231 xenograft tumors; assay type: in vivo, mice; design: Immunohistochemical staining of phosphorylated VAV3 in tissue derived from MDA-MB-231 xenografts; from tissue; host or cells: MDA-MB-231 xenograft tumour sections; details: versus vehicle control
# T1 sequence (Q9UKW4 1-847): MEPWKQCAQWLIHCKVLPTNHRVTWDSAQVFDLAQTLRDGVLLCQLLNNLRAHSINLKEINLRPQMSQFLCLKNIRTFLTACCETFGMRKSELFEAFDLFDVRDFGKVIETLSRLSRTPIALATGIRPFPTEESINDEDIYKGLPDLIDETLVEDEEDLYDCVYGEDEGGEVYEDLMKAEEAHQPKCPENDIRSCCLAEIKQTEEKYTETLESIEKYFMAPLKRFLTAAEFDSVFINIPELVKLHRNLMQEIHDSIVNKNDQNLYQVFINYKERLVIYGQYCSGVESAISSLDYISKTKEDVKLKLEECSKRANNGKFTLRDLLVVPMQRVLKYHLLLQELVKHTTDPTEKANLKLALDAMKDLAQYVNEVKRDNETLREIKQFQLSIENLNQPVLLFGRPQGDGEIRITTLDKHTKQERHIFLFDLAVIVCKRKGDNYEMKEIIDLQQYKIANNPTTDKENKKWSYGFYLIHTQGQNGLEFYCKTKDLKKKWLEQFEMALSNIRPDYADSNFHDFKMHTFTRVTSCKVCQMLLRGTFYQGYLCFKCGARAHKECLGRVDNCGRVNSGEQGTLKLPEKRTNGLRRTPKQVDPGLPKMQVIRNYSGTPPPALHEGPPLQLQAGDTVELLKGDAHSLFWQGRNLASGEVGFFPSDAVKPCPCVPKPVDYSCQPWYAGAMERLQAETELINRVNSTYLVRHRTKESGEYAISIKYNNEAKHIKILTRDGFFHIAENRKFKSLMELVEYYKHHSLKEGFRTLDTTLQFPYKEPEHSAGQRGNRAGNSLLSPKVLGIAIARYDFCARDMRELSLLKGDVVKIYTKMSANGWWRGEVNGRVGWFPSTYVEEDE
# Method: (7A) Immunoblot—efficiency of shRNA-mediated VAV3 knockdown in MDA-MB-231 triple negative breast cancer.
# Histology: Embedded tissues were cut into 4 μm sections then immunohistochemically stained using the Mouse on Mouse kit (MoM kit, Vector Laboratories). Tissue sections were subjected to sodium citrate antigen retrieval, pretreated with 0.3% hydrogen peroxide, blocked according to kit directions, and incubated with an antibody to phosphorylated VAV3 (Abcam) and HRP-conjugated anti-rabbit secondary (Vector Laboratories). Staining was completed with the DAB Peroxidase kit (Vector Laboratories) and counterstained with hematoxylin. Tissue sections were coverslipped with Cytoseal 60 and images acquired with a Nikon Eclipse Ci microscope.
# [4] = test system: NALM-1 cells; test: Survival of NALM-1 cells; assay type: cell-based, human; details: read-out: EC50, cell survival
# Source text: Ba/F3 cells are bone marrow-derived, IL-3 dependent, murine pro-B cells widely used in studying the mechanism of leukemia initiation and progression and targeted therapy discovery^1. NALM-1 are human lymphoblastic cells that express p190-BCR-ABL1 but not Ikaros (IKZF1)^2. Applicant treated Ba/F3 cells transduced with retrovirus encoding either p190- or p210-BCR-ABL1 or Mieg3 empty vector^3 control as before.
# MDA-MB-231 cells were maintained in IMEM (Invitrogen) supplemented with 10% FBS, 1% penicillin/streptomycin, and 1% amphotericin B. Ba/F3 cells were cultured in RPMI (GIBCO) supplemented with 10% FBS and IL-3 (10 ng/ml), NALM-1 cells were maintained in RPMI supplemented with 15% FBS. HEK293T cells were maintained with DMEM supplemented with 10% FBS and 1% penicillin/streptomycin. All cell lines were cultured at 37° C. in a 5% CO2 humidified incubator. Cell viability was assessed by trypan blue exclusion assay as previously described^4. Cytokines were from Peprotech.
# [5] = test system: Cdc42; test: Active Cdc42 pull-down with GST-PAK-GBD in p190-BCR-ABL1 Ba/F3 cells; assay type: cell-based; details: 3 μM
# Source text: GAPDH was used as loading control.
# [6] = test system: VAV3−/− murine BM leukemic cells expressing p190-BCR-ABL1; test: Colony formation and cell cycle of VAV3-deficient leukemic cells; assay type: cell-based; details: for number of colonies, mean±SD: vehicle 20±3.1
# Method: Quantification against total VAV3 is shown. […] Experiments were performed in triplicates.
# (FIG. 5A) Schematic of domain architecture of full-length, ΔCH and GEF-mutant VAV3; calponin-homology (CH), acidic region (Ac), Dbl-homology (DH), pleckstrin-homology (PH), zinc finger (ZF), SRC-homology 2 and 3 (SH2/SH3). Black circle and star indicate Y173 and N369, respectively.
# Re-introducing full-length or ΔCH VAV3 results in similar number of colonies as with wild-type BM leukemic cells (black bars, mean of 200.3 and 183.3 vs 188.3, respectively), a 3-fold increase from VAV3^−/− leukemic cells expressing the empty vector (mean=64.3 colonies).
# CFU-proB Assay: B-cell lineage colony-forming units (CFU-proB) were quantified post 9-day culture of leukemic BM cells or sorted for p190-BCR-ABL1-expressing B-cell progenitors in M3134 methylcellulose (StemCell Technologies) supplemented with 30% FBS (for mouse B lymphoid colony forming cells; StemCell Technologies), 2 mM L-glutamine and 1% penicillin-streptomycin (Invitrogen), 100 μM β-mercaptoethanol (Fisher-Scientific), 1% BSA (Sigma-Aldrich), 20 ng/mL of recombinant mIL-7 and 100 ng/ml of recombinant mSCF (PeproTech).
# Cell Cycle Analysis: Cell cycle was analyzed via in vitro BrdU incorporation (BD Pharmingen, Cat #552598). Briefly, leukemic progenitors were incubated with 1 mM BrdU solution for 45 minutes, cells were further fixed and permeabilized. DNAse treatment was done according to the instructions and stained with anti BrdU and apoptosis was analyzed by 7-AAD staining through flow cytometry analysis.
compound,measurement,setting,value
OC1(c2ccccc2)NC(=Nc2nc3ccccc3[nH]2)N=C1c1ccccn1 (centres unmarked) [IODVA1],EGFP+/B220+ leukemic B-cells in peripheral blood,[1],4.2±0.7%
same,survival by trypan blue exclusion,[2],not affected
same,pVAV3 staining of tumor sections,[3],significant decrease
same,EC50,[4]; Homo sapiens,680 nM
same,EC50,[4],677 nM
same,decrease of levels of active Cdc42,[5]; 15 min,60%
same,inhibition of active Cdc42,[5]; 30 min incubation,totally inhibits
same,"number of colonies, mean±SD",[6]; 1 μM,20±2.5
same,cell cycle analysis,"[6]; 3 μM, 20 h",not affected
same,"number of colonies, mean±SD",[6]; 3 μM,15±7.5
same,number of colonies,"[6]; VAV3−/− cells expressing empty vector, 10 μM",66 colonies
